Assay results taken from patent US20090131380A1, “Novel pharmaceutical composition for topical treatment of skin psoriasis and the treatment method thereof” (priority 2007, published 2009).

Key:
skin psoriasis = settings: cited from earlier work; for clinical antipsoriatic efficacy: topical, 0.05% (w/w) in Locobase® unctuous creme, 50 μg/cm^2/24 h, 35 days; for effect on psoriatic rash (irritation / worsening): topically administered
[1] = system: psoriatic plaques (skin psoriasis); assay: Topical treatment trial of psoriatic plaques in one psoriasis patient (Tetrac, Control and Daivonex regimens); assay type: in vivo, human; settings: twice a day
Description: A psoriasis patient having almost symmetrical psoriatic plaques on the lateral sides of both elbows (l.dx: 41 cm^2 and l.sin: 44 cm^2) and a psoriatic plaque (53 cm^2) on right calf was chosen for the trial.
a) An ointment (Locobase® unctuous creme, Astellas Pharma A/S Glostrup, Denmark) in which 500 μg/g 3,3′,5,5′-tetraiodothyroacetic acid (0.05%) of GMP-quality (Pharmatory Ltd., Oulu, Finland) was mixed was used as an ex tempore preparation for the concerned treatment purpose (hereinafter referred to as “Tetrac”).
b) A 50 μg/g calcipotriol (0.005%) containing creme (Daivonex®, LEO Pharma A/S, Ballerup, Denmark) was available as commercial pharmaceutical product (hereinafter referred to as “Daivonex®”).
c) A betamethasone 17-valerate-containing creme (Bemetson®, Orion oyj, Espoo, Finland) responding betamethasone 1 mg/g (0.1%) was available as a commercial product (hereinafter referred to as “Bemetson®”).
a) The psoriatic lesion of the left elbow of the patient was selected as the target of the topical treatment with Tetrac, the result of which is shown in left column of FIG. 1—“The Tetrac Regimen”. […]

psoriasis = settings: topical Triac; WO96/40048; cited from earlier work
plaque psoriasis = settings: placebo-controlled double-blind study, carried out in 1997; cited from earlier work

| SMILES | clinical antipsoriatic efficacy (skin psoriasis) | effect on psoriatic rash (irritation / worsening) (skin psoriasis) | further results |
| --- | --- | --- | --- |
| N[C@H](Cc1cc(I)c(Oc2cc(I)c(O)c(I)c2)c(I)c1)C(=O)O [D-thyroxine] | ineffective | do not irritate or worsen psoriatic rash | – |
| N[C@@H](Cc1cc(I)c(Oc2cc(I)c(O)c(I)c2)c(I)c1)C(=O)O [L-thyroxine] | – | greatly worsen psoriatic rash | – |
| N[C@@H](Cc1cc(I)c(Oc2ccc(O)c(I)c2)c(I)c1)C(=O)O [L-triiodothyronine] | – | greatly worsen psoriatic rash | – |
| O=C(O)Cc1cc(I)c(Oc2cc(I)c(O)c(I)c2)c(I)c1 [Tetrac, 3,3′,5,5′-tetraiodothyroacetic acid] | strong clinical antipsoriatic efficacy | – | clinical antipsoriatic effect on psoriatic lesion ([1]; after five weeks, photographs FIG. 1 / FIG. 2): clear clinical antipsoriatic effect; clinical antipsoriatic effect / healing of psoriatic plaque at end of trial ([1]; six weeks, Bemetson® (betamethasone) concurrently added for the final sixth week): surprisingly more potent clinical antipsoriatic effect |
| O=C(O)CCc1cc(I)c(Oc2cc(I)c(O)c(I)c2)c(I)c1 [Tetraprop, 3,3′,5,5′-tetraiodothyropropionic acid] | strong clinical antipsoriatic efficacy | – | – |
| O=C(O)Cc1cc(I)c(Oc2ccc(O)c(I)c2)c(I)c1 [Triac, 3,3′5-triiodothyroacetic acid] | indeed ineffective | do not irritate or worsen psoriatic rash | experiment persons in whom an antipsoriatic effect had emerged (psoriasis): 60%; efficacy in the topical treatment of plaque psoriasis (plaque psoriasis): ineffective |
